Data published in patent publication US11549123B2, “Plant EPSP synthases and methods of use” (PIONEER HI-BRED INTERNATIONAL, INC., priority 2015, dated 2023).
pKi: −log10 of the molar value.

Tests used:
Assay type in all cases: biochemical
[1] = test system: Helianthus annuus EPSPS with 868-H6 mutations, SEQ ID NO:10; experiment: EPSPS substrate saturation kinetics, sunflower H6; details: PEP
Experimental: (§1) EPSPS activity was determined by quantifying the phosphate generated from the EPSPS reaction. Release of inorganic phosphate was coupled to reaction with 2-amino-6-mercapto-7-methylpurine ribonucleoside, catalyzed by purine-nucleoside phosphorylase (M R Webb, Proc. Natl. Acad. Sci. 89:4884-4887, 1992). The absorbance change that occurs was monitored at 360 nm, where the extinction is 11,200 M^−1 cm^−1, with a Spectramax plate reader (Molecular Devices). To determine kinetic parameters, the varied substrate was present at seven concentrations (the eighth being the blank, containing no substrate) ranging from 4 to 400 uM and the unvaried substrate present at saturation. […] Reactions were monitored with a Spectramax plate reader. […] KI was then calculated from the following form of the Michaelis-Menten equation for competitive inhibition: KI=KM[I]/(KM app−KM) KM approximates the dissociation constant of the enzyme-substrate complex while kcat is the rate of conversion of substrate to product when the substrate concentration is saturating. kcat/KM is a widely accepted parameter for catalytic efficiency when substrate concentration is low (˜KM). […] The parameter kcat/KM×KI is used to quantify both catalytic efficiency and insensitivity and thus the overall fitness of the enzyme.
(§2) Native EPSPS amino acid sequences of rice (Oryza sativa) (SEQ ID NO:7), sorghum (Sorghum halepense) (SEQ ID NO:8), and sunflower (Helianthus annus) (SEQ ID NO:9) including the chloroplast transit peptide sequences were assembled and analyzed for mapping the corresponding amino acid mutations from the maize 868-H6. […]
(§3) ChloroP Prediction Server (Emanuelsson, O. et al. 1999. Protein Sci. 8(5):978-84) was used to approximate the amino terminus of the mature EPSPS proteins. […] The synthetic genes were cloned into a plasmid vector and expressed, purified and analyzed as described in Example 1.

[2] = target: T1, Zea mays EPSPS, wild-type, SEQ ID NO:1 (Zea mays, UniProt O24566); experiment: EPSPS reaction rate with or without 10 uM glyphosate, native maize; details: pH 7; read-out: Reaction rate with 10 μM glyph, % no glyph; further: 50 µM PEP and S3P
T1 construct: expressed in E. coli, purified

[3] = target: Sorghum halepense EPSPS with 868-H6 mutations, SEQ ID NO:12 (Sorghum halepense, UniProt H6T5X2, A1R/A3W/A415G/D401G/E301S/E390G/G101A/I207L/K83R/L97C/T278A/T360S/T440Q/V437R/V71Q); experiment: EPSPS substrate saturation kinetics, sorghum H6
Experimental: as §1, with “enzyme. […]” for “enzyme.”

[4] = target: Zea mays EPSPS variant 202R (Zea mays, UniProt O24566, I201R); experiment: EPSPS reaction rate with or without 10 uM glyphosate, 202R; details: pH 7; read-out: Reaction rate with 10 μM glyph, % no glyph; further: 50 µM PEP and S3P
[5] = target: Helianthus annuus EPSPS with 868-H6 mutations, SEQ ID NO:10 (Helianthus annuus, UniProt A0A251S0N3, A489G/D475G/E144Q/E375S/E464G/G175A/L171C/Q70R/R514Q/S352A/T434S/T72W/V156R/V281L/V511R); experiment: EPSPS substrate saturation kinetics, sunflower H6
Experimental: as §1, §2, §3

[6] = target: T2, Zea mays EPSPS variant Zm-H6 (868-H6) with K246G (H6-K246G) (Zea mays, UniProt O24566, A1R/A3W/A415G/A71Q/D401G/E301S/E390G/G101A/I207L/K245G/K83R/L97C/T278A/T360S/T440Q/V437R); experiment: Rapid two-rate method for (kcat/KM)*KI, H6-K246G; details: [E] 0.07 uM, [Gly] 1000 uM
T2 construct: 868-H6 plus K246G; E. coli BL21(DE3), Ni-NTA purified
T2 sequence (O24566 with tags, fused parts or gaps A1R/A3W/A71Q/K83R/L97C/G101A/I207L/K245G/T278A/E301S/T360S/E390G/D401G/A415G/V437R/T440Q): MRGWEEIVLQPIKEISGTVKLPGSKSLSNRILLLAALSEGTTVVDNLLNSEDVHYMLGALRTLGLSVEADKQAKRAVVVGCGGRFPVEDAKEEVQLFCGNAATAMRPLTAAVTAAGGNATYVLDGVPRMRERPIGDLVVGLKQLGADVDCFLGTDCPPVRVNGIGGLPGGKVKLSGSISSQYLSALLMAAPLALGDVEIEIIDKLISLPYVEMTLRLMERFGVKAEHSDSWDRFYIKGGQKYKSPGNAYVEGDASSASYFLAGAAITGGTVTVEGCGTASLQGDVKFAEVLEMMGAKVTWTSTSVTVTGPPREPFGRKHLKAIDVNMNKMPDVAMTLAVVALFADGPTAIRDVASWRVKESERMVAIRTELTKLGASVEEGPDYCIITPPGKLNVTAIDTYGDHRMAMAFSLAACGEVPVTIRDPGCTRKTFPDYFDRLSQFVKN
Excerpt: There are several practical considerations for accurately estimating (kcat/KM)*KI with the rapid method. […] 2) The inhibitor concentration must be adjusted so as to obtain a degree of inhibition that minimally amplifies the error in the term v0-vi in Equation 3. If inhibition is too little, v0-vi will be small, and the error in the multiplier vi×v0/(v0-vi) will be large. […] 3) Substrate concentration should be set at the approximate KM of the parental variant(s), subject to the sensitivity of the assay. High substrate concentration obscures sensitivity to the inhibitor and reduces stringency for capturing improvements in KM. Depending on the necessity for speed, there exists opportunity for customizing enzyme and inhibitor concentrations. […] The rapid method was repeated for those and obtained data that correlated better with data obtained by substrate saturation analysis. For screening purposes however, that correlation step is not necessary. Conditions can be set so that variants with a pre-determined minimal fitness level are accurately quantified.
In Table 15, parameters above the heavy line for the rapid method were obtained under standard conditions. For variants shown below the heavy line, the rapid analysis was repeated with enzyme or glyphosate concentrations adjusted as needed to generate sufficient signal within the limits for linear initial rates.

[7] = PEP as substrate, glyphosate as inhibitor

Sorghum halepense EPSPS with 868-H6 mutations, SEQ ID NO:12, sequence (H6T5X2 entry or part of it with the stated changes): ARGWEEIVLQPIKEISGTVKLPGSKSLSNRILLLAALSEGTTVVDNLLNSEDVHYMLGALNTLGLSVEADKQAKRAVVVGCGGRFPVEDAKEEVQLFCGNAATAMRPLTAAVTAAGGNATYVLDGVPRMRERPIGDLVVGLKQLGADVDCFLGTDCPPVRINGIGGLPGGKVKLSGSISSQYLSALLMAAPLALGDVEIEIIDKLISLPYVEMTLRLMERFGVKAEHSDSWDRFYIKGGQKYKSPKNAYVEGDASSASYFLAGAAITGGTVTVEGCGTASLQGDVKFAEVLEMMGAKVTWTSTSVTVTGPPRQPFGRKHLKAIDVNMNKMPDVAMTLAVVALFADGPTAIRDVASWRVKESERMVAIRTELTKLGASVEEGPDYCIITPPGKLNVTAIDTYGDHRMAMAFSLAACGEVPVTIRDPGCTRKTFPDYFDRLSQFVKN
Helianthus annuus EPSPS with 868-H6 mutations, SEQ ID NO:10 (Helianthus annuus, UniProt A0A251S0N3, A489G/D475G/E144Q/E375S/E464G/G175A/L171C/Q70R/R514Q/S352A/T434S/T72W/V156R/V281L/V511R), sequence (A0A251S0N3 67-518 with the stated changes): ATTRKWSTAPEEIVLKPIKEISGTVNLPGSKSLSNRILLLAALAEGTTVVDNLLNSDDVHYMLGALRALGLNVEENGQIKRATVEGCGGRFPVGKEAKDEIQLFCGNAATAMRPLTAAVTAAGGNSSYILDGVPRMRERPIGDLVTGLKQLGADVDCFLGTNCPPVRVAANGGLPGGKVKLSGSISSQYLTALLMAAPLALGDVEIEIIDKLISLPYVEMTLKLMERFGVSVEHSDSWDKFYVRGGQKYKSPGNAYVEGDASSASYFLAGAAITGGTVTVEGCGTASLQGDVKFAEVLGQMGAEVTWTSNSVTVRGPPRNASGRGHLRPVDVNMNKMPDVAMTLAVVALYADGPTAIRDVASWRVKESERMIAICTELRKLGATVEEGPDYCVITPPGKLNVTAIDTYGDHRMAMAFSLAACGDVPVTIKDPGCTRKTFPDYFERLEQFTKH
T1 sequence (O24566 entry or part of it): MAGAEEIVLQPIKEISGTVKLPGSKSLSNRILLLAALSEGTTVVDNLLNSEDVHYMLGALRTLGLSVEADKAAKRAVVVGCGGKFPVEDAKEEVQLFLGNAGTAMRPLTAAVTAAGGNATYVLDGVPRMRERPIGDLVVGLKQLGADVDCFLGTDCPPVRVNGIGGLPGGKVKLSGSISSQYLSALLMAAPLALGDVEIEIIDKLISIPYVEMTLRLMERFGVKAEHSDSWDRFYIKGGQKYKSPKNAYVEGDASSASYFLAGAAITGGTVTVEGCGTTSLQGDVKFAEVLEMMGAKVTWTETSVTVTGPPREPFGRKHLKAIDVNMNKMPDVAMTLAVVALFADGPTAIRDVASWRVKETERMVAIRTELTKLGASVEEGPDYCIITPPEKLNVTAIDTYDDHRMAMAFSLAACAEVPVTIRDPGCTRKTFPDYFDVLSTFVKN
Zea mays EPSPS variant 202R, sequence (O24566 entry or part of it I201R): as the sequence (O24566 entry or part of it) above, with I202R counted along it

SMILES | kcat/KM relative to maize H6 [1] [%] | activity at 10 µM [2] [%] | pKi [3] | (kcat/KM)*KI [3, 7] | activity at 10 µM [4] [%] | pKi [5] | (kcat/KM)*KI [5, 7] | (kcat/KM)*KI [6]
C=C(OP(=O)(O)O)C(=O)O [PEP, phosphoenolpyruvate] | 38 |  |  |  |  |  |  | 
O=C(O)CNCP(=O)(O)O [glyphosate, N-phosphonomethylglycine] |  | 9.49 | 3.11 | 8080 | 7.48 | 2.80 | 8960 | 3495
